Reference: patent publication US10246453B2, “Benzenesulfonamide compounds and their use as therapeutic agents” (Xenon Pharmaceuticals Inc., priority 2016, dated 2019)
Structures can show the parent of a compound that is named as a salt.

Columns and labels:
NaV1.1 = NaV1.1 (Homo sapiens (Human), UniProt P35498); assay: Sodium Influx Assay (Flux), NaV1.1; format: cell-based; details: Trex HEK293 cells, ANG2 dye; arithmetic mean
NaV1.5 = NaV1.5 (Homo sapiens (Human), UniProt Q14524); assay: Sodium Influx Assay (Flux), NaV1.5; details: read-out: Flux NaV1.5 IC50; Trex HEK293 cells, ANG2 dye; arithmetic mean
NaV1.6 = NaV1.6 (Homo sapiens (Human), UniProt Q9UQD0); assay: Sodium Influx Assay (Flux), NaV1.6; details: read-out: Flux NaV1.6 IC50; Trex HEK293 cells, ANG2 dye; arithmetic mean

NaV1.5, sequence (Q14524 other isoform, or with tags, fused parts or gaps): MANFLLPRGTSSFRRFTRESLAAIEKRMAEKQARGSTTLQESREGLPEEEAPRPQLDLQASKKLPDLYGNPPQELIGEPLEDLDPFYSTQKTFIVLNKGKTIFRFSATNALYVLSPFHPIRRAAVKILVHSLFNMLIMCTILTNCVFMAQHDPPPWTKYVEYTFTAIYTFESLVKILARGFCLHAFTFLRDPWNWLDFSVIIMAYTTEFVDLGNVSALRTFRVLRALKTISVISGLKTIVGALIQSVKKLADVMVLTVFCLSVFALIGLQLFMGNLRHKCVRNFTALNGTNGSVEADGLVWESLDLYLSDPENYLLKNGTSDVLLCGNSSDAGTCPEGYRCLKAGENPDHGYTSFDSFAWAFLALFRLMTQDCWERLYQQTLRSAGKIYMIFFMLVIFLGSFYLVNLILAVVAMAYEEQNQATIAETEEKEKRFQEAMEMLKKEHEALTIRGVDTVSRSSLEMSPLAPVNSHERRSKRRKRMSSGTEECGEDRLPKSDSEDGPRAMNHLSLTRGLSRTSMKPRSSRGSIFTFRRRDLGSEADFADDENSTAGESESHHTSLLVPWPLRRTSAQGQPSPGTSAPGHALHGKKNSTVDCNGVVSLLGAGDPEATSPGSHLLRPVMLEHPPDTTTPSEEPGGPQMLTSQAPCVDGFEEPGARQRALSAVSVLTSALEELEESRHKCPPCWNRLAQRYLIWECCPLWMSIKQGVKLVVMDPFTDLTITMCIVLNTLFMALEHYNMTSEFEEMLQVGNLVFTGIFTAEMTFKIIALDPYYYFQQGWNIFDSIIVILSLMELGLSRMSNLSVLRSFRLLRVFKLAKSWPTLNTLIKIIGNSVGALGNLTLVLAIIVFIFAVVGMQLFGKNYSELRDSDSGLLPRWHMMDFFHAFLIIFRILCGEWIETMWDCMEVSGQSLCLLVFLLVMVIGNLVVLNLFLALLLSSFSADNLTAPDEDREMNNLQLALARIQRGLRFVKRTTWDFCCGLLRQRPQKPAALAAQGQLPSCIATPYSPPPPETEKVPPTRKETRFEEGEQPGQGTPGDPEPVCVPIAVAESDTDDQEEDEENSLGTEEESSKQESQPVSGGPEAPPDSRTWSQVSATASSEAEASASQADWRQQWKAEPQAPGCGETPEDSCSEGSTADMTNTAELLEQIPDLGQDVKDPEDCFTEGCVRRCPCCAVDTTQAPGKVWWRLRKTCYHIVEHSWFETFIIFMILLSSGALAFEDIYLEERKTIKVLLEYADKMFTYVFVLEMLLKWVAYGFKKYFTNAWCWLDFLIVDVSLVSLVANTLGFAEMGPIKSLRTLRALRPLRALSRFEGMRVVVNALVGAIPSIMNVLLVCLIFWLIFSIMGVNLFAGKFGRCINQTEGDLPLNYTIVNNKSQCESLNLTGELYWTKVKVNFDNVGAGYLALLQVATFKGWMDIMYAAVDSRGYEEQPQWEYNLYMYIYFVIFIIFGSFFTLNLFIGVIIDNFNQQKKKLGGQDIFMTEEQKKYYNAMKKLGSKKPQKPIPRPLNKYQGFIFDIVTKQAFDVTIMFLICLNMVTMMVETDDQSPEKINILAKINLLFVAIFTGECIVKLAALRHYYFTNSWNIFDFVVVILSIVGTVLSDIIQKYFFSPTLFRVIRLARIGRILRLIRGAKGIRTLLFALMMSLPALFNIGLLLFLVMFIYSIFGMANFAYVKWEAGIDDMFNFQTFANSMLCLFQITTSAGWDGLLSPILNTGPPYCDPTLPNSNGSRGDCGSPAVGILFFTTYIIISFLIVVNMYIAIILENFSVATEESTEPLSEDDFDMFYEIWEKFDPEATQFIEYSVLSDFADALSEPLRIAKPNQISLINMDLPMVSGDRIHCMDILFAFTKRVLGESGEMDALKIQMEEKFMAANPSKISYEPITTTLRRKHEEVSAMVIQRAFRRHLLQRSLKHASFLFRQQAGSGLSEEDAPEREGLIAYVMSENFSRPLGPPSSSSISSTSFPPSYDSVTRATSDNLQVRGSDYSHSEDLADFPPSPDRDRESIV

Row | Structure (SMILES) | IC50 (NaV1.1) [µM] | IC50 (NaV1.5) [µM] | IC50 (NaV1.6) [µM]
1 | Cc1cc(S(=O)(=O)Nc2cscn2)c(F)cc1N(C)[C@H]1CCN(Cc2ccccc2F)C1 [Example 155, (S)-2-fluoro-4-((1-(2-fluorobenzyl)pyrrolidin-3-yl)(methyl)amino)-5-methyl-N-(thiazol-4-yl)benzenesulfonamide] | 12.6 | 14.4 | 0.22
2 | Cc1cc(S(=O)(=O)Nc2cscn2)c(F)cc1O[C@@]1(C)CCN(Cc2ccccc2)C1 [Example 159, (S)-4-((1-benzyl-3-methylpyrrolidin-3-yl)oxy)-2-fluoro-5-methyl-N-(thiazol-4-yl)benzenesulfonamide formate] | > 30 | > 30 | 0.178
3 | CN(c1cc(F)c(S(=O)(=O)Nc2cscn2)cc1Cl)[C@H]1CCN(Cc2cccc(C(F)F)n2)C1 [Example 160, (S)-5-chloro-4-((1-((6-(difluoromethyl)pyridin-2-yl)methyl)pyrrolidin-3-yl)(methyl)amino)-2-fluoro-N-(thiazol-4-yl)benzenesulfonamide] | 26.7 | > 30 | 1.69
4 | CN(c1cc(F)c(S(=O)(=O)Nc2cscn2)cc1Cl)[C@H]1CCN(Cc2cccc(C(C)(C)O)c2)C1 [Example 161, (S)-5-chloro-2-fluoro-4-((1-(3-(2-hydroxypropan-2-yl)benzyl)pyrrolidin-3-yl)(methyl)amino)-N-(thiazol-4-yl)benzenesulfonamide formate] | 26 | > 30 | 4.85
5 | O=S(=O)(Nc1cscn1)c1cc(Cl)c(O[C@H]2CCN(Cc3cccc(C(F)F)c3)C[C@H]2F)cc1F [Example 162, 5-chloro-4-(((3R,4S)-1-(3-(difluoromethyl)benzyl)-3-fluoropiperidin-4-yl)oxy)-2-fluoro-N-(thiazol-4-yl)benzenesulfonamide] | 6.88 | 5.78 | 6.13
6 | CN(c1cc(F)c(S(=O)(=O)Nc2cscn2)cc1Cl)[C@H]1CCN(Cc2nc(C(F)F)ccc2F)C1 [Example 163, (S)-5-chloro-4-((1-((6-(difluoromethyl)-3-fluoropyridin-2-yl)methyl)pyrrolidin-3-yl)(methyl)amino)-2-fluoro-N-(thiazol-4-yl)benzenesulfonamide formate] | > 30 | > 30 | 2.8
7 | CN(c1cc(F)c(S(=O)(=O)Nc2cscn2)cc1Cl)[C@H]1CCN(Cc2ccc(C(F)(F)F)o2)C1 [Example 164, (S)-5-chloro-2-fluoro-4-(methyl(1-((5-(trifluoromethyl)furan-2-yl)methyl)pyrrolidin-3-yl)amino)-N-(thiazol-4-yl)benzene-sulfonamide 2,2,2-trifluoroacetate] | 6.03 | 12.9 | 4.45
8 | CN(c1cc(F)c(S(=O)(=O)Nc2cscn2)cc1Cl)[C@H]1CCN(C2Cc3ccccc3C2)C1 [Example 166, (S)-5-chloro-4-((1-(2,3-dihydro-1H-inden-2-yl)pyrrolidin-3-yl)(methyl)amino)-2-fluoro-N-(thiazol-4-yl)benzene-sulfonamide formate] | 7.79 | 10.1 | 3.67
9 | Cc1ccc(CN2CC[C@H](N(C)c3cc(F)c(S(=O)(=O)Nc4cscn4)cc3Cl)C2)c(F)c1 [Example 167, (S)-5-chloro-2-fluoro-4-((1-(2-fluoro-4-methylbenzyl)pyrrolidin-3-yl)(methyl)amino)-N-(thiazol-4-yl)benzene-sulfonamide] | 6.44 | 8.85 | 1.69
10 | CN(c1cc(F)c(S(=O)(=O)Nc2cscn2)cc1Cl)[C@H]1CCN(Cc2cccc(OC(F)F)c2)C1 [Example 168, (S)-5-chloro-4-((1-(3-(difluoromethoxy)benzyl)-pyrrolidin-3-yl)(methyl)amino)-2-fluoro-N-(thiazol-4-yl)benzene-sulfonamide formate] | 4.17 | 5.89 | 2.02
